From PubChem BioAssay (NCI)
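Method: 48-hour compound exposure of cells in 96-well plates, five concentrations, linear interpolation of endpoints. Here, GI50 denotes the concentration required for 50% inhibition of growth. TGI marks complete inhibition of growth.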

What was measured:
Experiment in all cases: growth of human tumour cells (NCI), 48 h
HCC-2998 colon = system: HCC-2998 colon
NCI-H226 lung = system: NCI-H226 lung
NCI-H23 lung = system: NCI-H23 lung
OVCAR-5 ovarian = system: OVCAR-5 ovarian
NCI-H460 lung = system: NCI-H460 lung
HCT-116 colon = system: HCT-116 colon
MALME-3M melanoma = system: MALME-3M melanoma
OVCAR-8 ovarian = system: OVCAR-8 ovarian
HL-60(TB) leukemia = system: HL-60(TB) leukemia
SK-MEL-28 melanoma = system: SK-MEL-28 melanoma

| Compound | TGI (HCC-2998 colon) [µM] | TGI (NCI-H226 lung) [µM] | TGI (NCI-H23 lung) [µM] | TGI (OVCAR-5 ovarian) [µM] | TGI (NCI-H460 lung) [µM] | TGI (HCT-116 colon) [µM] | TGI (MALME-3M melanoma) [µM] | TGI (OVCAR-8 ovarian) [µM] | TGI (HL-60(TB) leukemia) [µM] | TGI (SK-MEL-28 melanoma) [µM] | GI50 (HCC-2998 colon) [µM] | GI50 (NCI-H226 lung) [µM] | GI50 (NCI-H23 lung) [µM] | GI50 (OVCAR-5 ovarian) [µM] | GI50 (NCI-H460 lung) [µM] | GI50 (HCT-116 colon) [µM] | GI50 (MALME-3M melanoma) [µM] | GI50 (OVCAR-8 ovarian) [µM] | GI50 (HL-60(TB) leukemia) [µM] | GI50 (SK-MEL-28 melanoma) [µM] |
| --- | --- | --- | --- | --- | --- | --- | --- | --- | --- | --- | --- | --- | --- | --- | --- | --- | --- | --- | --- | --- |
| COc1ccc(C2=[S+]C(c3ccccc3)(c3ccccc3)c3ccccc32)cc1 | > 100 | 31.3 | 74.8 | 49.5 | 30.5 | 24.3 | 46.1 | > 100 | 51.1 | 58.5 | – | – | – | – | – | – | – | – | – | – |
| O=c1nc2ccc([N+](=O)[O-])cc2[n+]([O-])[nH]1 | > 100 | > 100 | > 100 | > 100 | > 100 | > 100 | > 100 | > 100 | > 100 | > 100 | – | – | – | – | – | – | – | – | – | – |
| C/C(=N\NC(=O)c1ccc(Cl)cc1)c1nc2ncccc2[nH]1 | > 100 | – | > 100 | > 100 | > 100 | > 100 | 48.9 | 58.6 | 70.2 | > 100 | – | – | – | – | – | – | – | – | – | – |
| COc1cc(-c2ccc(N=Nc3ccc4c(S(=O)(=O)O)cc(S(=O)(=O)O)c(N)c4c3O)c(OC)c2)ccc1N=Nc1ccc2c(S(=O)(=O)O)cc(S(=O)(=O)O)c(N)c2c1O | > 100 | > 100 | > 100 | > 100 | > 100 | > 100 | > 100 | > 100 | > 62.6 | > 100 | – | – | – | – | – | – | – | – | – | – |
| N#[N+]c1c([O-])c2ccccc2c2ccccc12 | > 100 | 89.3 | > 100 | > 100 | > 100 | > 100 | – | > 100 | > 100 | > 100 | – | – | – | – | – | – | – | – | – | – |
| CCOC(=O)NC(Nc1cc(Cl)ccc1OC)(C(F)(F)F)C(F)(F)F | > 100 | > 100 | > 100 | > 100 | > 100 | > 100 | > 100 | – | > 100 | > 100 | – | – | – | – | – | – | – | – | – | – |
| c1ccc2c(c1)NCc1cc3ccccc3nc1O2 | > 100 | > 100 | > 100 | > 100 | > 100 | > 100 | > 100 | > 100 | > 100 | > 100 | – | – | – | – | – | – | – | – | – | – |
| CCOC(=O)/C=C/c1c(C)[nH]c(=O)[nH]c1=O | > 250 | > 250 | > 250 | > 250 | > 250 | > 250 | > 250 | > 250 | > 250 | > 250 | – | – | – | – | – | – | – | – | – | – |
| O=C1CCC[C@H]2O[C@@H](COC(=O)c3ccccc3)C[C@H]2O1 | – | > 100 | > 100 | > 100 | > 100 | – | – | > 100 | > 100 | > 100 | – | – | – | – | – | – | – | – | – | – |
| c1cc2c3c(c1)c1cc4c(cc1c[n+]3CC2)OCO4 | 10.4 | 4.69 | 13.8 | 24.9 | 12.2 | 75.9 | 3.88 | 25.3 | 24.7 | 12.3 | – | – | – | – | – | – | – | – | – | – |
| Cc1ccc(Cl)cc1N=NC(=O)NNc1cc(Cl)ccc1C | > 100 | 43.1 | 44.3 | 32.7 | 39 | 51.6 | 64.6 | – | > 100 | 38.9 | – | – | – | – | – | – | – | – | – | – |
| O=C1C(CO)=C[C@H](O)[C@H]2O[C@@H]12 | > 508 | 371 | 588 | 346 | 420 | 225 | 319 | 325 | 253 | 294 | – | – | – | – | – | – | – | – | – | – |
| c1ccc2c(c1)c1ccccc1n2Cn1c2ccccc2c2ccccc21 | – | > 100 | > 100 | > 100 | > 100 | – | > 100 | > 100 | > 100 | > 100 | – | – | – | – | – | – | – | – | – | – |
| Cc1cn(-c2cccc(NC(=O)c3ccc(C)c(Nc4nccc(-c5cccnc5)n4)c3)c2)cn1 | 8.02 | 3.32 | 10 | 3.68 | 4.05 | 3.05 | 2.99 | 2.5 | 19.8 | 3.18 | 3.05 | 1.59 | 3.01 | 1.88 | 1.97 | 1.64 | 1.51 | 1.1 | 4.61 | 1.8 |
| COc1cccc2c1C(=O)c1c(O)c3c(c(O)c1C2=O)C[C@@](O)(C(=O)COC(=O)c1ccccc1)C[C@@H]3OC1CC(N)C(O)C(C)O1 (some centres not stated) | 2.32 | – | – | 1.64 | 0.182 | – | 0.652 | 1.18 | 0.69 | 1.95 | 0.421 | – | – | 0.4 | 0.0167 | – | 0.136 | 0.154 | 0.0679 | 0.534 |
| O=C(NN1C(=O)C(Cl)C1c1cccc([N+](=O)[O-])c1)c1ccccc1O (configuration not stated) | – | – | > 100 | > 100 | > 100 | > 100 | > 100 | > 100 | > 100 | > 100 | – | – | – | – | – | – | – | – | – | – |
| Cc1cc(N/N=C/c2nc(-c3ccc(Cl)cc3)oc2C)c2cc(Br)ccc2n1 | 12.5 | 50.4 | 23.6 | 21.9 | 3.67 | 4.04 | 4.23 | 5.97 | 5.44 | 4.49 | 3.58 | 17.4 | 6 | 10.1 | 1.88 | 2 | 1.91 | 2.41 | 2.2 | 2.07 |
| C/C(=N\NC(=S)N1CCC(N2CCCCC2)CC1)c1ccccn1 | > 24.3 | – | 12 | 10.2 | 7.23 | 7.02 | > 100 | 11.7 | > 21 | 13.7 | – | – | – | – | – | – | – | – | – | – |
